In patent US20060252800A1, “Anti-leishmania agent” (priority 2003, published 2006):

System: Leishmania (L. major)
Assay: Leishmania protozoa proliferation inhibition assay
Format: cell-based
Settings: for OD level (number of viable Leishmania protozoa): 48 hours at 27° C., absorbance 450 nm minus 630 nm; for IC50: calculated from the graphs of FIGS. 1 to 4 (concentration vs number of viable leishmania protozoa), read-out: Concentration inhibiting 50% leishmania proliferation
Method: After dissolving each of the obtained compounds in dimethylsulfoxide (hereinafter referred to as DMSO), the resultant was diluted by 9 steps in Medium 199 medium (Invitrogen) to the indicated concentration, filtrated with a membrane filter, and each of the filtration was made as a sample solution. […] By keeping the solution at 27° C., incubation was performed under 5% CO2, for 48 hours. Then, TetraColor ONE (tradename: Seikagaku Corporation) reagent was added thereto and further incubated for 6 hours. Then, the absorbance at a wavelength of 450 nm was measured for the 96-well microtiter plate with a microplate reader, the wave length of 630 nm was made as reference wave length, and in order to exclude background effect, the absorbance at 630 nm was excluded from the one at 450 nm, and the OD level was calculated as a level to indicate the number of viable Leishmania protozoa. The assay was performed by three wells at a time for each concentration of each sample, and the mean level was made as OD level. […] Amphotericin B was used as positive control. […] Inhibiting effect against […] protozoa for each sample was similar or more compared with that of Amtephotericin B.

[1] = Table 3, sample concentration 0.001 mg/ml
[2] = Table 3, sample concentration 0.002165 mg/ml
[3] = Table 3, sample concentration 0.0072171 mg/ml
[4] = Table 3, sample concentration 0.02406 mg/ml
[5] = Table 3, sample concentration 0.08019 mg/ml
[6] = Table 3, sample concentration 0.2673 mg/ml
[7] = Table 3, sample concentration 0.891 mg/ml
[8] = Table 3, sample concentration 2.97 mg/ml
[9] = Table 3, sample concentration 9.9 mg/ml
[10] = Table 3, sample concentration 33 mg/ml
[11] = Table 2, sample concentration 0.0001 mg/ml
[12] = Table 2, sample concentration 0.0007 mg/ml
[13] = Table 2, sample concentration 0.002 mg/ml
[14] = Table 2, sample concentration 0.008 mg/ml
[15] = Table 2, sample concentration 0.025 mg/ml
[16] = Table 2, sample concentration 0.084 mg/ml
[17] = Table 2, sample concentration 0.279 mg/ml
[18] = Table 2, sample concentration 0.93 mg/ml
[19] = Table 2, sample concentration 3.1 mg/ml
[20] = Table 2, sample concentration 2E−04 mg/ml
[21] = Table 1, sample concentration 0.001 mg/ml
[22] = Table 1, sample concentration 0.016384 mg/ml
[23] = Table 1, sample concentration 0.04096 mg/ml
[24] = Table 1, sample concentration 0.1024 mg/ml
[25] = Table 1, sample concentration 0.256 mg/ml
[26] = Table 1, sample concentration 0.64 mg/ml
[27] = Table 1, sample concentration 1.6 mg/ml
[28] = Table 1, sample concentration 4 mg/ml
[29] = Table 1, sample concentration 10 mg/ml
[30] = Table 1, sample concentration 25 mg/ml, mean of three wells

Compound: C[C@@H]1[C@H](O)[C@@H](C)/C=C/C=C/C=C/C=C/C=C/C=C/C=C/[C@H](O[C@@H]2O[C@H](C)[C@@H](O)[C@H](N)[C@@H]2O)C[C@@H]2O[C@](O)(C[C@@H](O)C[C@@H](O)[C@H](O)CC[C@@H](O)C[C@@H](O)CC(=O)O[C@H]1C)C[C@H](O)[C@H]2C(=O)O [Amphotericin B, reference compound]
- OD level (number of viable Leishmania protozoa) (Table 1, positive control line, concentration 0.001 mg/ml): 0.428
- OD level (number of viable Leishmania protozoa) (Table 1, positive control line, concentration 0.0121094 mg/ml): 0.394
- OD level (number of viable Leishmania protozoa) (Table 1, positive control line, concentration 0.0242188 mg/ml): 0.373
- OD level (number of viable Leishmania protozoa) (Table 1, positive control line, concentration 0.0484375 mg/ml): 0.352
- OD level (number of viable Leishmania protozoa) (Table 1, positive control line, concentration 0.096875 mg/ml): 0.349
- OD level (number of viable Leishmania protozoa) (Table 1, positive control line, concentration 0.19375 mg/ml): 0.044
- OD level (number of viable Leishmania protozoa) (Table 1, positive control line, concentration 0.3875 mg/ml): 0.036
- OD level (number of viable Leishmania protozoa) (Table 1, positive control line, concentration 0.775 mg/ml): 0.036
- OD level (number of viable Leishmania protozoa) (Table 1, positive control line, concentration 1.55 mg/ml): 0.036
- OD level (number of viable Leishmania protozoa) (Table 1, positive control line, concentration 3.1 mg/ml): 0.034
- OD level (number of viable Leishmania protozoa) [1]: 0.351
- OD level (number of viable Leishmania protozoa) [2]: 0.338
- OD level (number of viable Leishmania protozoa) [3]: 0.325
- OD level (number of viable Leishmania protozoa) [4]: 0.331
- OD level (number of viable Leishmania protozoa) [5]: 0.311
- OD level (number of viable Leishmania protozoa) [6]: 0.273
- OD level (number of viable Leishmania protozoa) [7]: 0.051
- OD level (number of viable Leishmania protozoa) [8]: 0.029
- OD level (number of viable Leishmania protozoa) [9]: 0.029
- OD level (number of viable Leishmania protozoa) [10]: 0.030
- IC50: 140 nM

Compound: CN1/C(=c2\s/c(=C\c3cccc[n+]3C)n(Cc3ccccc3)c2=O)Sc2ccccc21.Cc1ccc(S(=O)(=O)[O-])cc1 [I (a), 2-[{5-(3-methyl-2(3H)-benzothiazolylidene)-4-oxo-3-benzyl-2-thiazolidinylidene}methyl]-1-methylpyridinium=p-toluenesulfonate]
- OD level (number of viable Leishmania protozoa) [11]: 0.356
- OD level (number of viable Leishmania protozoa) [12]: 0.361
- OD level (number of viable Leishmania protozoa) [13]: 0.383
- OD level (number of viable Leishmania protozoa) [14]: 0.469
- OD level (number of viable Leishmania protozoa) [15]: 0.172
- OD level (number of viable Leishmania protozoa) [16]: 0.088
- OD level (number of viable Leishmania protozoa) [17]: 0.043
- OD level (number of viable Leishmania protozoa) [18]: 0.034
- OD level (number of viable Leishmania protozoa) [19]: 0.035
- OD level (number of viable Leishmania protozoa) [20]: 0.356
- IC50: 410 nM

Compound: CCn1c(=O)/c(=C2\Sc3ccccc3N2C)s/c1=C\c1cccc[n+]1Cc1ccc(C(=O)O)cc1.[Br-] [I (d), 1-(p-carboxyphenyl)methyl-2-[3-ethyl-{5-(3-methyl-2(3H)-benzothiazolylidene)-4-oxo-2-thiazolidinylidene}methyl]pyridinium=bromide]
- OD level (number of viable Leishmania protozoa) [11]: 0.360
- OD level (number of viable Leishmania protozoa) [12]: 0.359
- OD level (number of viable Leishmania protozoa) [13]: 0.348
- OD level (number of viable Leishmania protozoa) [14]: 0.364
- OD level (number of viable Leishmania protozoa) [15]: 0.384
- OD level (number of viable Leishmania protozoa) [16]: 0.346
- OD level (number of viable Leishmania protozoa) [17]: 0.360
- OD level (number of viable Leishmania protozoa) [18]: 0.333
- OD level (number of viable Leishmania protozoa) [19]: 0.242
- OD level (number of viable Leishmania protozoa) [20]: 0.356
- IC50: 5300 nM

Compound: C=CCn1c(=Cc2cccc[n+]2C)sc(=C2Sc3ccccc3N2C)c1=O.Cc1ccc(S(=O)(=O)[O-])cc1 [IV (a), 2-[{5-(3-methyl-2(3H)-benzothiazolylidene)-4-oxo-3-(2-propenyl)-2-thiazolidinylidene}methyl]-1-methylpyridinium=p-toluenesulfonate]
- OD level (number of viable Leishmania protozoa) [21]: 0.470
- OD level (number of viable Leishmania protozoa) [22]: 0.541
- OD level (number of viable Leishmania protozoa) [23]: 0.488
- OD level (number of viable Leishmania protozoa) [24]: 0.385
- OD level (number of viable Leishmania protozoa) [25]: 0.157
- OD level (number of viable Leishmania protozoa) [26]: 0.095
- OD level (number of viable Leishmania protozoa) [27]: 0.047
- OD level (number of viable Leishmania protozoa) [28]: 0.035
- OD level (number of viable Leishmania protozoa) [29]: 0.031
- OD level (number of viable Leishmania protozoa) [30]: 0.032
- IC50: 320 nM

Compound: CCn1c(=Cc2cc[n+](C)c3ccccc23)sc(=C2Sc3ccccc3N2C)c1=O.Cc1ccc(S(=O)(=O)[O-])cc1 [IV (b), 4-[{5-(3-methyl-2(3H)-benzothiazolylidene)-4-oxo-3-ethyl-2-thiazolidinylidene}methyl]-1-methylquinolium=p-toluene sulfonate]
- OD level (number of viable Leishmania protozoa) [11]: 0.361
- OD level (number of viable Leishmania protozoa) [12]: 0.354
- OD level (number of viable Leishmania protozoa) [13]: 0.362
- OD level (number of viable Leishmania protozoa) [14]: 0.380
- OD level (number of viable Leishmania protozoa) [15]: 0.409
- OD level (number of viable Leishmania protozoa) [16]: 0.211
- OD level (number of viable Leishmania protozoa) [17]: 0.102
- OD level (number of viable Leishmania protozoa) [18]: 0.044
- OD level (number of viable Leishmania protozoa) [19]: 0.037
- OD level (number of viable Leishmania protozoa) [20]: 0.351

Compound: CCn1c(=Cc2ccc3ccccc3[n+]2C)sc(=C2Sc3ccccc3N2C)c1=O.[I-] [IV (c), 2-[{5-(3-methyl-2(3H)-benzothiazolylidene)-4-oxo-3-ethyl-2-thiazolidinylidene}methyl]-1-methylquinolinium=iodide]
- OD level (number of viable Leishmania protozoa) [21]: 0.472
- OD level (number of viable Leishmania protozoa) [22]: 0.470
- OD level (number of viable Leishmania protozoa) [23]: 0.474
- OD level (number of viable Leishmania protozoa) [24]: 0.496
- OD level (number of viable Leishmania protozoa) [25]: 0.398
- OD level (number of viable Leishmania protozoa) [26]: 0.158
- OD level (number of viable Leishmania protozoa) [27]: 0.117
- OD level (number of viable Leishmania protozoa) [28]: 0.069
- OD level (number of viable Leishmania protozoa) [29]: 0.032
- OD level (number of viable Leishmania protozoa) [30]: 0.032
- IC50: 820 nM

Compound: CCn1c(=Cc2sc3ccccc3[n+]2C)sc(=C2C=Cc3ccccc3N2C)c1=O.Cc1ccc(S(=O)(=O)[O-])cc1 [IV (d)]
- OD level (number of viable Leishmania protozoa) [1]: 0.346
- OD level (number of viable Leishmania protozoa) [2]: 0.357
- OD level (number of viable Leishmania protozoa) [3]: 0.339
- OD level (number of viable Leishmania protozoa) [4]: 0.341
- OD level (number of viable Leishmania protozoa) [5]: 0.359
- OD level (number of viable Leishmania protozoa) [6]: 0.348
- OD level (number of viable Leishmania protozoa) [7]: 0.365
- OD level (number of viable Leishmania protozoa) [8]: 0.395
- OD level (number of viable Leishmania protozoa) [9]: 0.344
- OD level (number of viable Leishmania protozoa) [10]: 0.035
